Assay results: paper PMC9924227, “IFITM proteins assist cellular uptake of diverse linked chemotypes” (Science (New York, N.Y.), 2022)
Like-named read-outs stand apart in the source and are kept apart here.

How the values were obtained:
Assay in all cases: cells
K562 = tested on: T1, K562; parameters: dose-response cell viability assay in K562 CRISPRi/CRISPRa CML cells, IC50; settings: Homo sapiens, read-out: Cell viability IC50 (nM) / No sgRNA
T1 construct: engineered with CRISPRi or CRISPRa machinery, no sgRNA
Description: To further examine the breadth of linked chemotypes that might be assisted by IFITMs, we designed, synthesized, and characterized a new linked molecular glue inhibitor based on the natural product rocaglamide. Rocaglamide clamps the EIF4A1 helicase to 5’ untranslated regions (UTRs) of target mRNAs to inhibit the translation of downstream sequences ([64]). […] We reasoned that dimerization of rocaglamide through its amide position could be a chemically tractable means to simultaneously engage two proximal EIF4A1-RNA complexes within the cell. We designed a molecule, BisRoc-1 (fig. S9B), that links two rocaglamide monomers together with a linker length (35 heavy atoms) exceeding the distance separating two rocaglamide binding sites in the crystal structure (fig. S9A). […] Additionally, we evaluated the relationship between linker length and IFITM assistance by examining an analog series consisting of BisRoc-1 (PEG11), BisRoc-2 (PEG4), BisRoc-3 (PEG2), and rocaglamide (no linker) (fig. S9E). We treated our K562 CRISPRi and CRISPRa cells with these inhibitors and evaluated differences in potency resulting from IFITM expression modulation, as measured by half-maximal inhibitory concentration (IC50) shift in a cell viability assay (fig. S9, E and F, and data file S7). […] Given the ubiquitous presence of IFITMs in cells, we hypothesized that the cellular uptake of other linked inhibitors in the literature could also be assisted by IFITMs. While not generally as large as the linked chemotypes described above, PROTACs are likewise composed of two chemical entities covalently attached by a flexible tether ([16]). Thus, we included four PROTACs (GMB-475, MZ1, BETd-260, and dBET6) and their non-linked parent inhibitors in an expanded survey of chemical-genetic interactions with IFITMs (Fig. 4A, fig. S10, and table S1). These compounds were evaluated in the same IFITM dependency analysis as the BisRoc linker series (Fig. 4B and data file S7). Using RapaLink-1 as a chemical benchmark, we observed that IFITM1, IFITM2, and IFITM3 overexpression sensitized cells to linked chemotypes (Fig. 4B; compounds 9-17). The inverse finding, resistance to linked chemotypes, resulted from gene knockdown (Fig. 4B). The trend observed in the BisRoc series was corroborated across the 9 bivalent molecules tested (Fig. 4B): the magnitudes of chemical-genetic interactions correlated with linker length which is reflected in inhibitor size (molecular weight) and flexibility (number of rotatable bonds). Linked chemotypes with long linkers were more IFITM-assisted than linked chemotypes with short linkers, and non-linked chemotypes (Fig. 4B; compounds 1-8) were not observed to be assisted by IFITMs (Fig. 4B). Despite their cellular activities, the physicochemical properties of the linked chemotypes largely violate Lipinski’s ([1]) and Veber’s ([2]) classic guidelines (Fig. 4, A to C, and table S1), raising the need for a revised drug design framework that considers IFITM-assisted uptake and other cellular import processes.  Fig. 4. IFITMs assist the cellular activity of diverse linked chemotypes. (A) Heavy atom skeletons of compounds assessed for IFITM assistance (see also fig. S10 for chemical structures). Compounds were categorized as non-linked chemotypes (compounds 1–8, black), linked chemotypes with short linkers (compounds 9–14, gray), or linked chemotypes with long linkers (compounds 15–17, green). (B) Chemical-genetic interaction map of inhibitors in (A) with IFITM1, IFTM2, and IFITM3. Potency, as measured by dose-response IC50 in a cell viability assay (see also Fig. 1F, Fig. 3D, or fig. S9D for example source data), was normalized to that of non-sgRNA-expressing K562 CRISPRi or CRISPRa cells. Physicochemical properties, including molecular weight (MW) and number of rotatable bonds, with their respective traditional thresholds for drug-likeness are indicated (right). Data represent means of three biological replicates. […]

K562 CRISPRi = tested on: K562 CRISPRi; parameters: Cell viability dose-response in K562 CRISPRi/CRISPRa cells; IC50 from fitted curve; settings: Homo sapiens, non-targeting control sgRNA, read-out: Cell viability IC50 (nM) / NegCtrl sg
Description: (§1) To further examine the breadth of linked chemotypes that might be assisted by IFITMs, we designed, synthesized, and characterized a new linked molecular glue inhibitor based on the natural product rocaglamide. Rocaglamide clamps the EIF4A1 helicase to 5’ untranslated regions (UTRs) of target mRNAs to inhibit the translation of downstream sequences ([64]). […] We reasoned that dimerization of rocaglamide through its amide position could be a chemically tractable means to simultaneously engage two proximal EIF4A1-RNA complexes within the cell. We designed a molecule, BisRoc-1 (fig. S9B), that links two rocaglamide monomers together with a linker length (35 heavy atoms) exceeding the distance separating two rocaglamide binding sites in the crystal structure (fig. S9A). […] Additionally, we evaluated the relationship between linker length and IFITM assistance by examining an analog series consisting of BisRoc-1 (PEG11), BisRoc-2 (PEG4), BisRoc-3 (PEG2), and rocaglamide (no linker) (fig. S9E). We treated our K562 CRISPRi and CRISPRa cells with these inhibitors and evaluated differences in potency resulting from IFITM expression modulation, as measured by half-maximal inhibitory concentration (IC50) shift in a cell viability assay (fig. S9, E and F, and data file S7). […] IFITMs assist the cellular activity of diverse linked chemotypes. (A) Heavy atom skeletons of compounds assessed for IFITM assistance (see also fig. S10 for chemical structures). Compounds were categorized as non-linked chemotypes (compounds 1–8, black), linked chemotypes with short linkers (compounds 9–14, gray), or linked chemotypes with long linkers (compounds 15–17, green). (B) Chemical-genetic interaction map of inhibitors in (A) with IFITM1, IFTM2, and IFITM3. Potency, as measured by dose-response IC50 in a cell viability assay (see also Fig. 1F, Fig. 3D, or fig. S9D for example source data), was normalized to that of non-sgRNA-expressing K562 CRISPRi or CRISPRa cells. Physicochemical properties, including molecular weight (MW) and number of rotatable bonds, with their respective traditional thresholds for drug-likeness are indicated (right). Data represent means of three biological replicates. (C) Map of chemical space populated by 304 kinase inhibitors in clinical development (black), 3270 PROTACs reported in the literature (gray), and 3 linked chemotypes described herein (green). Boundaries represent traditional guidelines for drug-likeness.

K562 CRISPRa = tested on: K562 CRISPRa; parameters: Cell viability dose-response in K562 CRISPRi/CRISPRa cells; IC50 from fitted curve; settings: Homo sapiens; sheet K562 CRISPRa IC50;; non-targeting control sgRNA; read-out: Cell viability IC50 (nM) / NegCtrl sg
Description: as §1

[1] = sheet K562 CRISPRa IC50, no sgRNA

COc1ccc([C@@]23Oc4cc(OC)cc(OC)c4[C@]2(O)[C@H](O)[C@H](C(=O)N(C)C)[C@H]3c2ccccc2)cc1 [Rocaglamide]
IC50 (K562; [1]): 7.65 nM | IC50 (K562; Cells=K562 CRISPRi, no sgRNA): 7.23 nM | IC50 (K562 CRISPRi): 6.86 nM | IC50 (K562 CRISPRa): 6.97 nM

Cc1sc2c(c1C)C(c1ccc(Cl)cc1)=N[C@@H](CC(=O)OC(C)(C)C)c1nnc(C)n1-2 [JQ1]
IC50 (K562; [1]): 24.4 nM | IC50 (K562; Cells=K562 CRISPRi, no sgRNA): 118 nM | IC50 (K562 CRISPRi): 121 nM | IC50 (K562 CRISPRa): 22.2 nM

Cc1sc2c(c1C)C(c1ccc(Cl)cc1)=N[C@@H](CC(=O)NCCCCCCCCNC(=O)COc1cccc3c1C(=O)N(C1CCC(=O)NC1=O)C3=O)c1nnc(C)n1-2 (some centres unmarked) [dBET6]
IC50 (K562; [1]): 3.26 nM | IC50 (K562; Cells=K562 CRISPRi, no sgRNA): 11.7 nM | IC50 (K562 CRISPRi): 12.6 nM | IC50 (K562 CRISPRa): 3.04 nM

NC(=O)c1cccc(-c2cc(Nc3ccc(OC(F)(F)F)cc3)ncn2)c1 [GNF-2]
IC50 (K562; [1]): 202 nM | IC50 (K562; Cells=K562 CRISPRi, no sgRNA): 291 nM | IC50 (K562 CRISPRi): 284 nM | IC50 (K562 CRISPRa): 205 nM

CC(C)n1nc(-c2ccc3oc(N)nc3c2)c2c(N)ncnc21 [Sapanisertib]
IC50 (K562; [1]): 14.2 nM | IC50 (K562; Cells=K562 CRISPRi, no sgRNA): 24.6 nM | IC50 (K562 CRISPRi): 24.4 nM | IC50 (K562 CRISPRa): 15.3 nM

CO[C@H]1C[C@@H]2CC[C@@H](C)[C@@](O)(O2)C(=O)C(=O)N2CCCC[C@H]2C(=O)O[C@H]([C@H](C)C[C@@H]2CC[C@@H](O)[C@H](OC)C2)CC(=O)[C@H](C)/C=C(\C)[C@@H](O)[C@@H](OC)C(=O)[C@H](C)C[C@H](C)/C=C/C=C/C=C/1C [Rapamycin]
IC50 (K562; [1]): 0.356 nM | IC50 (K562; Cells=K562 CRISPRi, no sgRNA): 0.743 nM | IC50 (K562 CRISPRi): 0.776 nM | IC50 (K562 CRISPRa): 0.376 nM

CCn1nc(C2CC2)cc1Nc1nc(C(=O)NCCCCCc2cccc3c2CN(C2CCC(=O)NC2=O)C3=O)nc2[nH]c3cc(-c4c(C)noc4C)c(OC)cc3c12 (centres unmarked) [BETd-260]
IC50 (K562; [1]): 1.15 nM | IC50 (K562; Cells=K562 CRISPRi, no sgRNA): 3.79 nM | IC50 (K562 CRISPRi): 3.88 nM | IC50 (K562 CRISPRa): 1.04 nM

CO[C@@H]1C[C@@H]2CC[C@@H](C)[C@@](O)(O2)C(=O)C(=O)N2CCCC[C@@H]2C(=O)O[C@H]([C@H](C)C[C@H]2CC[C@H](OCCOCc3cn(CCOCCOCCOCCOCCOCCOCCOCCOCCC(=O)NCCCCn4nc(-c5ccc6oc(N)nc6c5)c5c(N)ncnc54)nn3)[C@H](OC)C2)CC(=O)[C@H](C)/C=C(/C)[C@H](O)[C@@H](OC)C(=O)[C@H](C)C[C@H](C)\C=C/C=C\C=C/1C (stereo in doubt) [RapaLink-1]
IC50 (K562; [1]): 2.23 nM | IC50 (K562; Cells=K562 CRISPRi, no sgRNA): 1.19 nM | IC50 (K562 CRISPRi): 1.25 nM | IC50 (K562 CRISPRa): 2.07 nM

Cc1ncsc1-c1ccc(CNC(=O)[C@@H]2C[C@@H](O)CN2C(=O)[C@@H](NC(=O)COCCOc2ccc(-c3cc(Nc4ccc(OC(F)(F)F)cc4)ncn3)cc2)C(C)(C)C)cc1 [GMB-475]
IC50 (K562; [1]): 212 nM | IC50 (K562; Cells=K562 CRISPRi, no sgRNA): 264 nM | IC50 (K562 CRISPRi): 249 nM | IC50 (K562 CRISPRa): 179 nM

Cc1ncsc1-c1ccc(CNC(=O)[C@@H]2C[C@@H](O)CN2C(=O)[C@@H](NC(=O)COCCOCCOCCNC(=O)C[C@@H]2N=C(c3ccc(Cl)cc3)c3c(sc(C)c3C)-n3c(C)nnc32)C(C)(C)C)cc1 [MZ1]
IC50 (K562; [1]): 31.4 nM | IC50 (K562; Cells=K562 CRISPRi, no sgRNA): 135 nM | IC50 (K562 CRISPRi): 146 nM | IC50 (K562 CRISPRa): 33.3 nM

CCn1nc(C2CC2)cc1Nc1nc(C(=O)NC)nc2[nH]c3cc(-c4c(C)noc4C)c(OC)cc3c12 [HJB97]
IC50 (K562; [1]): 11.6 nM | IC50 (K562; Cells=K562 CRISPRi, no sgRNA): 46.8 nM | IC50 (K562 CRISPRi): 41.5 nM | IC50 (K562 CRISPRa): 9.74 nM
